Paper PMC3682423 (The FEBS journal, 2011)

Key:
[1] = molecular target: isolated HIV RNase H domain (p15) (Human immunodeficiency virus type 1 group M subtype B, UniProt P03366); experiment: Quenching of intrinsic fluorescence of the isolated RNase H domain; type: binding, HIV-1
Y181C RT RDDP = Y181C RT RDDP (Human immunodeficiency virus type 1 group M subtype B, UniProt P03366, Y780C); experiment: biochemical; design: species or system HIV-1
[2] = molecular target: wt HIV-1 RT-associated RDDP activity (Human immunodeficiency virus type 1 group M subtype B, UniProt P03366); experiment: biochemical
K103N RT RNase H = K103N RT RNase H (Human immunodeficiency virus type 1 group M subtype B, UniProt P03366, K702N); experiment: biochemical; design: species or system HIV-1
[3] = molecular target: wt HIV-1 RT-associated RNase H activity (Human immunodeficiency virus type 1 group M subtype B, UniProt P03366); experiment: biochemical; type: biochemical
K103N RT RDDP = K103N RT RDDP (Human immunodeficiency virus type 1 group M subtype B, UniProt P03366, K702N); experiment: biochemical; design: species or system HIV-1
Y181C RT RNase H = Y181C RT RNase H (Human immunodeficiency virus type 1 group M subtype B, UniProt P03366, Y780C); experiment: RNase H polymerase-independent cleavage assay, Y181C RT; type: biochemical, HIV-1

O=C1Cc2ccccc2C(=O)N1O [2-hydroxy-1,2,3,4-tetrahydroisoquinoline-1,3-dione]
IC50 [1]: 52 µM

O=C1c2ccccc2C(=O)c2c1ccc(O)c2O [Alizarine, alizarine]
IC50 (Y181C RT RDDP): > 100 µM
IC50 [2]: 79 ± 8 µM
IC50 (K103N RT RNase H): > 100 µM
IC50 [3]: > 100 µM
inhibition of wt RT-associated RNase H function (in words) ([3]; wt RT): inactive
IC50 (K103N RT RDDP): 68 ± 5 µM
IC50 (Y181C RT RNase H): > 100 µM
